One block for each molecule: values may come before it. Active and inactive are the calls of the source. No cut-off for these calls is given here.
Tests used:
[1] = Selectivity ratio of Ki for displacement of [3H]-NF608 from rat GluK1 to Ki for displacement of [3H]-kainate from mouse GluK5
[2] = biological target: Glutamate receptor ionotropic, kainate 2 (Rattus norvegicus, UniProt P42260); assay: Displacement of [3H]-KA from rat GluK2
[3] = Displacement of [3H]-KA from KA in rat cortical synaptosomes incubated for 60 mins by TopCount microplate scintillation counting method; assay type: subcellular, Cortex, Synaptosome
[4] = Selectivity ratio of Ki for displacement of [3H]-KA from rat GluK2 to Ki for displacement of [3H]-kainate from mouse GluK5
[5] = biological target: Glutamate NMDA receptor (Rattus norvegicus) (UniProt P35439+Q00959+Q00960+Q00961+Q62645+Q8VHN2+Q9R1M7); assay: Displacement of [3H]CGP39653 from NMDA receptor in rat cortical synaptosomes assessed as remaining activity at 10 uM incubated for 60 mins by Topcount microplate scintillation counting method relative to control; assay type: subcellular; details: Cortex, Synaptosome
[6] = biological target: T1, Glutamate receptor ionotropic, kainate 5 (Mus musculus, UniProt Q61626); assay: Displacement of [3H]-kainate from mouse GluK5 expressed in Sf9 cell membrane incubated for 2 hrs by scintillation counting method; assay type: cell membranes
T1 sequence (Q61626 whole entry): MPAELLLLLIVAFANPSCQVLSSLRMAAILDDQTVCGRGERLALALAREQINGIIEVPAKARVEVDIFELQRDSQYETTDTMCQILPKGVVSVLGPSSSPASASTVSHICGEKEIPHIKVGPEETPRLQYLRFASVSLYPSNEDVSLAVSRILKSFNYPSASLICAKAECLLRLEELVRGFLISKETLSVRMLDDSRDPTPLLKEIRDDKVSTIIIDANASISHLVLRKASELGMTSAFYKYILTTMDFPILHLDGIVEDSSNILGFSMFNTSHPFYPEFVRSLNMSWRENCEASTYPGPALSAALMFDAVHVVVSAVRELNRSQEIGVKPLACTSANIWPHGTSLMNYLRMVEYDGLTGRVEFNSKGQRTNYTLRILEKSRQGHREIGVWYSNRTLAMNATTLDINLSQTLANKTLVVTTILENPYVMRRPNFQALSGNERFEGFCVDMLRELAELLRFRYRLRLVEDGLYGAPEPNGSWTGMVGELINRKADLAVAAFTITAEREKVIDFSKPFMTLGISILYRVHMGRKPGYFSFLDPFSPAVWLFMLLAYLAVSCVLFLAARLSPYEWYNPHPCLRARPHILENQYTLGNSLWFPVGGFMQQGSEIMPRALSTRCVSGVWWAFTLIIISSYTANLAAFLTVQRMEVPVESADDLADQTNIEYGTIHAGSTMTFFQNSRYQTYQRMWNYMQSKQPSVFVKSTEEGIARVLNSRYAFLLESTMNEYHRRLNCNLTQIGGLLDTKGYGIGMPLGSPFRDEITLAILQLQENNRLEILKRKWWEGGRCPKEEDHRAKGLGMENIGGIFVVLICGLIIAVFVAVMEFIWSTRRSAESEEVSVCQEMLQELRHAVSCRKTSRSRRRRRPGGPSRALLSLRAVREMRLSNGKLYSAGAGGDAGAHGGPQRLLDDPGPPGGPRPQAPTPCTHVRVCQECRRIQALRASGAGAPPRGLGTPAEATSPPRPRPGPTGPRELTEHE

[7] = biological target: Glutamate receptor ionotropic, kainate 3 (Rattus norvegicus, UniProt P42264); assay: Displacement of [3H]-KA from rat GluK3
[8] = biological target: Glutamate receptor 4 (Rattus norvegicus) (UniProt P19493); assay: Displacement of [3H]-AMPA from AMPA in rat cortical synaptosomes assessed as remaining activity at 10 uM incubated for 30 mins by TopCount microplate scintillation counting method relative to control; assay type: subcellular; details: Cortex, Synaptosome
[9] = biological target: Glutamate receptor ionotropic, kainate 1 (Rattus norvegicus, UniProt P22756); assay: Displacement of [3H]-NF608 from rat GluK1
[10] = Selectivity ratio of Ki for displacement of [3H]-KA from rat GluK3 to Ki for displacement of [3H]-kainate from mouse GluK5
[11] = biological target: T2, Ionotropic glutamate receptor kainate 2/5 (Homo sapiens) (UniProt Q16478+Q13002); assay: Agonist activity at GluK2/K5 (unknown origin) expressed in HEK293T cells at 10 uM by electrophysiology; assay type: cell-based
[12] = biological target: Glutamate receptor ionotropic, kainate 1 (Rattus norvegicus) (UniProt P22756); assay: Displacement of [3H]-NF608 from rat GluK1 assessed as percent of radioligand binding at 10 uM relative to control
[13] = biological target: T2, Ionotropic glutamate receptor kainate 2/5 (Homo sapiens); assay: Antagonist activity at GluK2/K5 (unknown origin) expressed in HEK293T cells preincubated with compound followed by L-Glu stimulation by electrophysiology; assay type: cell-based
Neuron [14] = assay: Agonist activity at GluK2/K5 in mouse hippocampal neurons assessed as change in holding current at 100 uM by electrophysiology; assay type: cell-based; details: filed as agonist
Neuron [15] = assay: Agonist activity at GluK2/K5 in mouse hippocampal neurons assessed as change in holding current at 10 uM by electrophysiology; assay type: cell-based; details: filed as agonist
Glutamate receptor 4 [16] = biological target: T3, Glutamate receptor 4 (Rattus norvegicus, UniProt P19493); assay: Displacement of [3H]-AMPA from AMPA in rat brain membrane preincubated for 15 mins followed by [3H]-AMPA addition and measured after 40 mins by scintillation counting method; assay type: cell membranes
[17] = Displacement of [3H]-Kainic acid from KA in rat brain membrane preincubated for 15 mins followed by [3H]-Kainic acid addition and measured after 1 hr by scintillation counting method; assay type: cell membranes
Glutamate NMDA receptor = assay: Displacement of [3H]CGP39653 from NMDA receptor in rat cortical synaptosomes incubated for 60 mins by Topcount microplate scintillation counting method; assay type: subcellular, Cortex, Synaptosome
Glutamate receptor 4 [18] = biological target: T3, Glutamate receptor 4; assay: Displacement of [3H]-AMPA from AMPA in rat cortical synaptosomes incubated for 30 mins by TopCount microplate scintillation counting method; assay type: subcellular, Cortex, Synaptosome
Hippocampus = assay: Reduction in CA1 spike amplitude in Wistar rat hippocampal slices after 20 mins of toxin administration; assay type: functional, tissue-based
[19] = biological target: T4, Glutamate receptor ionotropic, kainate 2 (Homo sapiens, UniProt Q13002); assay: Displacement of [3H]-kainic acid from GluR6 (unknown origin) expressed in Sf9 cells membrane; assay type: cell membranes, Cell membrane
[20] = biological target: T4, Glutamate receptor ionotropic, kainate 2; assay: Displacement of [3H](2S, 4R)-4-MeGlu (SYM-2081) from GluK2 (unknown origin)
[21] = Displacement of [3H]-Kainic acid from KA in rat synaptic membrane; assay type: subcellular, Synaptosome
[22] = Binding affinity to KA receptor in rat synaptosomes; assay type: subcellular, Synaptosome
Glutamate receptor 4 [23] = biological target: T3, Glutamate receptor 4; assay: Binding affinity to AMPA receptor in rat synaptosomes; assay type: subcellular, Synaptosome
[24] = biological target: Glutamate receptor ionotropic, kainate 1 (Homo sapiens, UniProt P39086); assay: Displacement of [3H](2S, 4R)-4-MeGlu (SYM-2081) from GluK1 (unknown origin)
Glutamate receptor 4 [25] = biological target: T3, Glutamate receptor 4; assay: Displacement of [3H]-AMPA from AMPA in rat synaptic membrane; assay type: subcellular, Synaptosome
[26] = biological target: T5, Glutamate receptor ionotropic, kainate 5 (Mus musculus) (UniProt Q61626); assay: Displacement of [3H]-kainate from mouse GluK5 expressed in Sf9 cell membrane assessed as remaining activity at 10 uM incubated for 2 hrs by scintillation counting method relative to control; assay type: cell membranes
T5 sequence (whole entry): T1 sequence (Q61626 whole entry)

Rattus norvegicus = species on record: Rattus norvegicus; assay: Displacement of [3H]-KA from KA in rat cortical synaptosomes assessed as remaining activity at 10 uM incubated for 60 mins by TopCount microplate scintillation counting method relative to control; assay type: subcellular; details: Cortex, Synaptosome
[27] = biological target: Glutamate receptor ionotropic, kainate 2 (Rattus norvegicus) (UniProt P42260); assay: Displacement of [3H]-KA from rat GluK2 assessed as percentage of radioligand binding at 10 uM relative to control
[28] = biological target: Glutamate receptor ionotropic, kainate 3 (Rattus norvegicus) (UniProt P42264); assay: Displacement of [3H]-KA from rat GluK3 assessed as percentage of radioligand binding at 10 uM relative to control
Glutamate receptor ionotropic, kainate 3 (Rattus norvegicus), sequence (P42264 whole entry): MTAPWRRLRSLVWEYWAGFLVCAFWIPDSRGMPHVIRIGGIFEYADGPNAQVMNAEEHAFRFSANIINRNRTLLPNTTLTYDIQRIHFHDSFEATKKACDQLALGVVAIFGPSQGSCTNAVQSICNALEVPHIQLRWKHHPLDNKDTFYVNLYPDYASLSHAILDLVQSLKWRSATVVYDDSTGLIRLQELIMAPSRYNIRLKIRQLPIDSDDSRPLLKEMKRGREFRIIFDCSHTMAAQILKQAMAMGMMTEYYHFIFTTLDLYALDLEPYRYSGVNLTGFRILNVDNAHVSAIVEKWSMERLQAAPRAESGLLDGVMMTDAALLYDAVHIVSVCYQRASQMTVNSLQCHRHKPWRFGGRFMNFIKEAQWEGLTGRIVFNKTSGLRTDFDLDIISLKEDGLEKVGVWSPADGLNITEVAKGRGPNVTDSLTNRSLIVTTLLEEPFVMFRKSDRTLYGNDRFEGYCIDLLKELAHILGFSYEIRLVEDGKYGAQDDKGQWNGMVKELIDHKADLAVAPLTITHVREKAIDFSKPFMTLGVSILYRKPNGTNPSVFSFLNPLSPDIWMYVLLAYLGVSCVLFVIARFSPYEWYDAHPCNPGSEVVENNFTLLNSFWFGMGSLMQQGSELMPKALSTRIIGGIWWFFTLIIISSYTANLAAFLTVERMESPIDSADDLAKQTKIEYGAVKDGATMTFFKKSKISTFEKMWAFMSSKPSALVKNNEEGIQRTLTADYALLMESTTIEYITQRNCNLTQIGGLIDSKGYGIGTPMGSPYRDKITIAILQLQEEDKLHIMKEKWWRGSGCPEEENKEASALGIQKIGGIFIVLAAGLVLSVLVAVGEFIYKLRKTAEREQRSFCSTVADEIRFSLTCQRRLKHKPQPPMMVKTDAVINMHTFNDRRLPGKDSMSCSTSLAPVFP

Glutamate receptor ionotropic, kainate 3, sequence (P42264 whole entry): as above
Glutamate receptor ionotropic, kainate 1 (Rattus norvegicus), sequence (P22756 whole entry): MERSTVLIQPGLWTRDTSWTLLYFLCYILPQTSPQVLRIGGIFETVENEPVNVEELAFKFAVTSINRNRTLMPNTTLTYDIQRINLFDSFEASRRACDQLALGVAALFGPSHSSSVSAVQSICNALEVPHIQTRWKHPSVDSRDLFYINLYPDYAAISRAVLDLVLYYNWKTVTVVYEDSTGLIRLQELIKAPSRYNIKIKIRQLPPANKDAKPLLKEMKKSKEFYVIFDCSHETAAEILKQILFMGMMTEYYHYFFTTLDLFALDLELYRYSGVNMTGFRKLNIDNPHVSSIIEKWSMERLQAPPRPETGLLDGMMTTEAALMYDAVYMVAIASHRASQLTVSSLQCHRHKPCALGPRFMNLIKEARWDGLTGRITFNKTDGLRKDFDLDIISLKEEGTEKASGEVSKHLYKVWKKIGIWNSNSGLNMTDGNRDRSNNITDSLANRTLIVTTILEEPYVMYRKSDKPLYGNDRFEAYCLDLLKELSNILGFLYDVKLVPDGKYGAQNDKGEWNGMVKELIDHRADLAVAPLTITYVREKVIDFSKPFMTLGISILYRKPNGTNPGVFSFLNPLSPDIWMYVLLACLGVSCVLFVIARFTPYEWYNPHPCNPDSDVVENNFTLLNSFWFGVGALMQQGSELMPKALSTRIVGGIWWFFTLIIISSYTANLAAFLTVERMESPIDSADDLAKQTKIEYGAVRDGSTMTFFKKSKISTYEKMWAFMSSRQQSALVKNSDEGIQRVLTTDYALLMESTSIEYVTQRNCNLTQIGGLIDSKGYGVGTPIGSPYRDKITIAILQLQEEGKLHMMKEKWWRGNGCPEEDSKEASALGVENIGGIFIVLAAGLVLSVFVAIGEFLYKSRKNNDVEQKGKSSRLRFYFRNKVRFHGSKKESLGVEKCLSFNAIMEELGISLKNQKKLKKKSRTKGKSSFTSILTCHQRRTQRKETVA
Glutamate receptor ionotropic, kainate 1 (Rattus norvegicus, UniProt P22756), sequence (P22756 whole entry): as above
Glutamate receptor 4 (Rattus norvegicus), sequence (P19493 whole entry): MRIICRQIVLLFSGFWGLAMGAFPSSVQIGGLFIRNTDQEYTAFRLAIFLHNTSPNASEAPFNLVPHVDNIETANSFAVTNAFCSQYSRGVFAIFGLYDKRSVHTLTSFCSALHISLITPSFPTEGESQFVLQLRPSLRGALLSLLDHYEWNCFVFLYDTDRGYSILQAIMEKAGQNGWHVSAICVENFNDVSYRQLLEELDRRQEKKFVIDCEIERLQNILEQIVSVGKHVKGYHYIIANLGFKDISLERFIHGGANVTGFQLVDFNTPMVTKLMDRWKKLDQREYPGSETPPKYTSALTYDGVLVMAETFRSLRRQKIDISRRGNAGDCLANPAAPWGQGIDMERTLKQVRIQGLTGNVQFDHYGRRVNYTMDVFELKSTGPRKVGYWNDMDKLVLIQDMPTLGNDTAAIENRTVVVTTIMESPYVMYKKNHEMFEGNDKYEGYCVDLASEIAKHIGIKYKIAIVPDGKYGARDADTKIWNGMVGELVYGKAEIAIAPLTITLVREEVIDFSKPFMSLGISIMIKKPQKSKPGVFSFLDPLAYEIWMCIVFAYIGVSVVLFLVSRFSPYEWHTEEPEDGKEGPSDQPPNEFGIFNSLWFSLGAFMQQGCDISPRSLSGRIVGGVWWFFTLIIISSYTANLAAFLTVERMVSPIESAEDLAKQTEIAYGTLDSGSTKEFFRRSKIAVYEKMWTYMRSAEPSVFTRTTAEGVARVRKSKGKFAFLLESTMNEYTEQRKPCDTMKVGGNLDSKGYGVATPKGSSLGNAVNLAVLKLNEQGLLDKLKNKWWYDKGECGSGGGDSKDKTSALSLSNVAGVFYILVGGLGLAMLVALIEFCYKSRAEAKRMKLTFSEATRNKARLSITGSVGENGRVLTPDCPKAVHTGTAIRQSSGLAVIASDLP
T3 sequence (P19493 whole entry): as above
Glutamate receptor ionotropic, kainate 2 (Rattus norvegicus, UniProt P42260), sequence (P42260 whole entry): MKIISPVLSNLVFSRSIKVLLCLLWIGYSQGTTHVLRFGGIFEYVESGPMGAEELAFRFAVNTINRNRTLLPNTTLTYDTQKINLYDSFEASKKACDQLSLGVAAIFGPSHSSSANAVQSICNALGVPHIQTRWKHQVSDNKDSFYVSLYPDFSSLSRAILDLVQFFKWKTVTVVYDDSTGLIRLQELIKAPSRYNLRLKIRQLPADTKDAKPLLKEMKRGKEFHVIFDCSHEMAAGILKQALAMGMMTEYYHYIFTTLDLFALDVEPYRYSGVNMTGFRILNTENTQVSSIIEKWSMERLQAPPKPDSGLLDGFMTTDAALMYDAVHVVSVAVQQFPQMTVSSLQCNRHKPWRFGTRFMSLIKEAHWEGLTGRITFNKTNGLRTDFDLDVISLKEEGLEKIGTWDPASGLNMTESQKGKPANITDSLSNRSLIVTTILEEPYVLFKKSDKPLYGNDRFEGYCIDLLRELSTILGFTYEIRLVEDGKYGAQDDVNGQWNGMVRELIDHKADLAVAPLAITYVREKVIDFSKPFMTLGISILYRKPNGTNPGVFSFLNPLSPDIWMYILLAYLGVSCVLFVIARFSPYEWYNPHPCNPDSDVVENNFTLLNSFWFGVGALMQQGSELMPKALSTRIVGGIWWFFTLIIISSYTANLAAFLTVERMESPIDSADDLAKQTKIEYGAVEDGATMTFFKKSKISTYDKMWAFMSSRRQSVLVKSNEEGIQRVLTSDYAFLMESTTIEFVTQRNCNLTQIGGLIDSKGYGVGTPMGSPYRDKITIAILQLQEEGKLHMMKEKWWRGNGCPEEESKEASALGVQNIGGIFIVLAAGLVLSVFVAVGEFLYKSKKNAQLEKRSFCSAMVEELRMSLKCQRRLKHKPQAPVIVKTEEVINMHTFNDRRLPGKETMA
T4 sequence (Q13002 whole entry): as the sequence (P42260 whole entry) above, with S5F, V7I, L11P, S14R, S16T, I17V, V19L, V494A counted along it
Glutamate receptor ionotropic, kainate 2 (Rattus norvegicus), sequence (P42260 whole entry): as the sequence (P42260 whole entry) above
Glutamate receptor ionotropic, kainate 1 (Homo sapiens, UniProt P39086), sequence (P39086 whole entry): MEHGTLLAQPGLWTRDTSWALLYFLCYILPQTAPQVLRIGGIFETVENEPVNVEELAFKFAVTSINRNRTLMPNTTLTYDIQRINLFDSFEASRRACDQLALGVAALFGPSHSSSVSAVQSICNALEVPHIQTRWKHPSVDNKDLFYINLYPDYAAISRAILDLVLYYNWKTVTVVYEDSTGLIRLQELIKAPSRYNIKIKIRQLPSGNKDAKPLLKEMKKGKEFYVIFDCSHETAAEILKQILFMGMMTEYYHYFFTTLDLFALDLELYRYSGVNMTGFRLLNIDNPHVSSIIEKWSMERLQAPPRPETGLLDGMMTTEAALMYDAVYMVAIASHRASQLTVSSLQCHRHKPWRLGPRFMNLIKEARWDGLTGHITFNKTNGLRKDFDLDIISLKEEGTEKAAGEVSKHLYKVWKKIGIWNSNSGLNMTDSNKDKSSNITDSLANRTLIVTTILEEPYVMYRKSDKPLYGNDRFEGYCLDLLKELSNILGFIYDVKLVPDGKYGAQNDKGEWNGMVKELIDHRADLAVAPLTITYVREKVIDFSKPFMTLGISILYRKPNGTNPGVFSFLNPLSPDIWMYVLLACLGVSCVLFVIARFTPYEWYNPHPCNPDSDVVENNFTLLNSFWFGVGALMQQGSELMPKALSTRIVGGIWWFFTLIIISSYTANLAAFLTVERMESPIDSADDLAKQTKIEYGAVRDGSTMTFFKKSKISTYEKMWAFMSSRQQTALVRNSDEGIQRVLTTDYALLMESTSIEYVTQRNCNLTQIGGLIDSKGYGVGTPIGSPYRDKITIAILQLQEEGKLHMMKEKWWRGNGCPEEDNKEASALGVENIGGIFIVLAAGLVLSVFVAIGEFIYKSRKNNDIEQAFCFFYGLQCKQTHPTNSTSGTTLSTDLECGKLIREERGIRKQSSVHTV

Compound: C/C(=C\C=C/[C@@H](C)C(=O)O)[C@H]1CN[C@H](C(=O)O)[C@H]1CC(=O)O
IC50 (Glutamate receptor 4 [16]): 32 µM
Activity (Neuron [15]): 2940 pA
IC50 [17]: 1.4 µM

Compound: C/C(=C/C/C=C(\C)C(=O)O)[C@H]1CN[C@H](C(=O)O)[C@H]1CC(=O)O
EC50 (Hippocampus): 0.887 µM
Ki [19]: 0.13 µM

Compound: C/C(=C/C=C/[C@@H](C)C(=O)O)[C@H]1CN[C@H](C(=O)O)[C@H]1CC(=O)O [DOMOIC ACID]
Ki [20]: 0.00604 µM
EC50 (Hippocampus): 0.228 µM
IC50 [21]: 0.004 µM
IC50 [22]: 0.015 µM
IC50 (Glutamate receptor 4 [23]): 9 µM
Ki [24]: 0.00111 µM
IC50 (Glutamate receptor 4 [25]): 0.47 µM

Compound: C=C(CC/C=C(\C)C(=O)O)[C@H]1CN[C@H](C(=O)O)[C@H]1CC(=O)O
EC50 (Hippocampus): 3.71 µM

Compound: Nc1nc([C@H]2CN[C@H](C(=O)O)[C@H]2CC(=O)O)cs1
IC50 [22]: 0.005 µM

Compound: Cc1nc([C@H]2CN[C@H](C(=O)O)[C@H]2CC(=O)O)cs1
IC50 [22]: 0.006 µM

More lines, main results first:

Ratio Ki [1]: 14
Ki [2]: 8.66 µM
IC50 [3]: 1.73 µM
Ratio Ki [4]: 14
Activity [5]: 102%
Ki [6]: 0.42 µM
Ki [7]: 5.9 µM
Activity [8]: 73%
Ki [9]: 11.7 µM
Ratio Ki [10]: 14
Compound: CC(CCc1cnnn1[C@H]1CN[C@H](C(=O)O)[C@H]1CC(=O)O)C(=O)O (some centres not stated)

Activity [11]: inactive
Ki [2]: 70 µM
Activity [12]: 90%
IC50 [3]: 4.4 µM
Activity [13]: inactive
Activity [5]: 99%
Ki [6]: 0.432 µM
Ki [7]: 17.9 µM
Activity [8]: 90%
Compound: O=C(O)C[C@@H]1[C@@H](C(=O)O)NC[C@@H]1n1nncc1-c1ccc2cc(O)ccc2c1
Activity (Neuron [14]): 148 pA
Activity (Neuron [15]): 56 pA

Ki [2]: > 100 µM
IC50 [3]: > 100 µM
Ki (Glutamate NMDA receptor): > 100 µM
Ki [7]: > 100 µM
Ki [9]: > 100 µM
IC50 (Glutamate receptor 4 [18]): > 100 µM
Compound: O=C(O)CCc1cn([C@H]2CN[C@H](C(=O)O)[C@H]2CC(=O)O)nn1

Ki [2]: 2.6 µM
IC50 [3]: 1.3 µM
Ki (Glutamate NMDA receptor): > 100 µM
Ki [7]: 0.28 µM
Ki [9]: 3.3 µM
IC50 (Glutamate receptor 4 [18]): 9.5 µM
Compound: O=C(O)C[C@@H]1[C@@H](C(=O)O)NC[C@@H]1n1ccnn1

Activity [26]: 85%
Activity [12]: 95%
Activity [5]: 92%
Activity [8]: 100%
Activity (Rattus norvegicus): 76%
Activity [27]: 79%
Activity [28]: 81%
Compound: NCc1cnnn1[C@H]1CN[C@H](C(=O)O)[C@H]1CC(=O)O

Activity [12]: 92%
IC50 [3]: 5.1 µM
Ki (Glutamate NMDA receptor): 101 µM
Ki [6]: 2.15 µM
Activity [8]: 80%
Activity [27]: 76%
Activity [28]: 90%
Compound: O=C(O)C[C@@H]1[C@@H](C(=O)O)NC[C@@H]1n1nncc1-c1cccc(C(F)(F)F)c1

Ratio Ki [1]: > 40
Ki [2]: 36 µM
Activity [12]: 93%
IC50 [3]: 5.1 µM
Ratio Ki [4]: > 40
Activity [5]: 101%
Ki [6]: 0.499 µM
Ki [7]: 21.1 µM
Activity [8]: 80%
Ratio Ki [10]: > 40
Compound: O=C(O)C[C@@H]1[C@@H](C(=O)O)NC[C@@H]1n1nncc1-c1ccccc1
